{"source": "patent US10260079B2", "about": "“Method for producing ergothioneine by using soybean cake powder as nitrogen source in a seed medium” (TIANJIN INSTITUTE OF INDUSTRIAL BIOTECHNOLOGY, CHINESE …, priority 2014, dated 2019)", "key": {"[1]": {"test_system": "Pleurotus ostreatus mycelia CGMCC No. 6232", "experiment": "Shake-flask fermentation, total content of ergothioneine in the fermentation broth by HPLC", "type": "cell-based"}, "[2]": {"test_system": "Pleurotus ostreatus mycelia CGMCC No. 6232", "experiment": "Shake-flask fermentation, content of extracellular ergothioneine in the filtrate by HPLC", "procedure": "Seed medium: corn flour 30 g/L, soybean meal powder 15 g/L, α-amylase 80 U/L, KH2PO4 3 g/L, MgSO4.7H2O 1.5 g/L, and a balance of water. The seed medium was sterilized at 121° C. for 20 min, and the liquid volume in a 500 mL triangular flask was 150 mL. […] A lawn of the strain CGMCC No. 6232 was picked from the PDA slant and inoculated into the seed medium, cultured on a shaker at 150 rpm at 25° C. for 4 days, to obtain a seed liquor. […] The obtained permeate was the test sample for detection of the content of extracellular ergothioneine in the filtrate. […] The solutions were filtered with 0.22 μm millipore filter to obtain the reference solutions. Qualitative and quantitative detection: L-ergothioneine reference solutions and the test samples were detected by HPLC under the same chromatographic conditions. The chromatograms of the test samples were compared with those of the L-ergothioneine reference solutions, and the chromatographic peak of L-ergothioneine in the test sample was identified based on the retention time. A standard curve was plotted with the concentrations of L-ergothioneine reference solutions and the corresponding peak areas. In the case that the sample load of the reference solution was identical with that of the test sample, an external standard method was used for quantification so as to calculate the content of ergothioneine in the test sample. The concentration of ergothioneine in the test sample was the concentration of ergothioneine in the fermentation broth. Detection conditions: the chromatographic column was Agilent Eclipse XDB-C18 (4.6×250 mm, 5 μm), with two chromatographic columns in series; the mobile phase was 1% methanol solution, the pH of which was adjusted to 5.0 using acetic acid-sodium acetate buffer; the detection wavelength was 257 nm; the flow rate was 0.7 mL/min; the column temperature was 25° C.; and the sample load was 5 μL. […] Pleurotus ostreatus mycelia CGMCC No. 6232 were subjected to fermentation and culture."}}, "note": "Several values for one entry are separate records, joined by “and”; a condition that tells them apart may be missing. Identical values can stand only once. Like-named read-outs stand apart in the source and are kept apart here.", "data": [{"compound": "CC(=O)N1CCN(c2ccc(OCC3COC(Cn4ccnc4)(c4ccc(Cl)cc4Cl)O3)cc2)CC1", "note": "(centres unmarked) [Ketoconazole, reference compound]", "values": [{"measurement": "Content of ergothioneine in fermentation broth", "setting": "[1]; Ketoconazole 0.5 mg/L added in fermentation medium", "result": "127.6 ± 1.06", "unit": "mg/L"}, {"measurement": "Content of ergothioneine in fermentation broth", "setting": "[1]; Ketoconazole 1 mg/L added in fermentation medium", "result": "130.7 ± 2.22", "unit": "mg/L"}, {"measurement": "Content of ergothioneine in fermentation broth", "setting": "[1]; Ketoconazole 5 mg/L added in fermentation medium", "result": "134.1 mg/L and 134.1 ± 2.99 mg/L"}, {"measurement": "Content of ergothioneine in fermentation broth", "setting": "[1]; Ketoconazole 10 mg/L added in fermentation medium", "result": "132.5 ± 1.87", "unit": "mg/L"}, {"measurement": "Content of ergothioneine in fermentation broth", "setting": "[1]; Ketoconazole 50 mg/L added in fermentation medium", "result": "128.9 ± 1.18", "unit": "mg/L"}, {"measurement": "activation at 5 µg/mL", "setting": "[1]; Pleurotus ostreatus, CGMCC6232, 360 h, Ketoconazole 5 mg/L, read-out: content of ergothioneine improved compared with control group", "result": 9.6, "unit": "%"}, {"measurement": "content of extracellular ergothioneine in the filtrate", "setting": "[2]; Ketoconazole 50 mg/L (highest)", "result": 5.77, "unit": "mg/L"}]}, {"compound": "C[S+](C)[O-]", "note": "[dimethyl sulfoxide]", "values": [{"measurement": "content of extracellular ergothioneine in the filtrate", "setting": "[2]; dimethyl sulfoxide 2% (V/V) (highest)", "result": 10.18, "unit": "mg/L"}]}, {"compound": "O=C(O)CN(CCN(CC(=O)O)CC(=O)O)CC(=O)O", "note": "[EDTA, ethylenediaminetetraacetic acid]", "values": [{"measurement": "content of extracellular ergothioneine in the filtrate", "setting": "[2]; EDTA 0.5 g/L (highest)", "result": 9.28, "unit": "mg/L"}]}, {"compound": "Clc1ccc(COC(Cn2ccnc2)c2ccc(Cl)cc2Cl)c(Cl)c1", "note": "(centres unmarked) [Miconazole, reference compound]", "values": [{"measurement": "Content of ergothioneine in fermentation broth", "setting": "[1]; Miconazole 0.5 mg/L added in fermentation medium", "result": "132.4 ± 2.96", "unit": "mg/L"}, {"measurement": "Content of ergothioneine in fermentation broth", "setting": "[1]; Miconazole 1 mg/L added in fermentation medium", "result": "140.0 ± 3.28", "unit": "mg/L"}, {"measurement": "Content of ergothioneine in fermentation broth", "setting": "[1]; Miconazole 5 mg/L added in fermentation medium", "result": "152.9 mg/L and 152.9 ± 4.22 mg/L"}, {"measurement": "Content of ergothioneine in fermentation broth", "setting": "[1]; Miconazole 10 mg/L added in fermentation medium", "result": "147.0 ± 3.09", "unit": "mg/L"}, {"measurement": "Content of ergothioneine in fermentation broth", "setting": "[1]; Miconazole 15 mg/L added in fermentation medium", "result": "129.8 ± 2.11", "unit": "mg/L"}, {"measurement": "activation at 5 µg/mL", "setting": "[1]; Pleurotus ostreatus, CGMCC6232, 360 h, Miconazole 5 mg/L, read-out: content of ergothioneine improved compared with control group", "result": 24.9, "unit": "%"}, {"measurement": "content of extracellular ergothioneine in the filtrate", "setting": "[2]; Miconazole 50 mg/L (highest)", "result": 9.14, "unit": "mg/L"}]}, {"compound": "OC(Cn1cncn1)(Cn1cncn1)c1ccc(F)cc1F", "note": "[Fluconazole, reference compound]", "values": [{"measurement": "Content of ergothioneine in fermentation broth", "setting": "[1]; Fluconazole 2 mg/L added in fermentation medium", "result": "131.6 ± 1.92", "unit": "mg/L"}, {"measurement": "Content of ergothioneine in fermentation broth", "setting": "[1]; Fluconazole 5 mg/L added in fermentation medium", "result": "137.2 ± 2.51", "unit": "mg/L"}, {"measurement": "Content of ergothioneine in fermentation broth", "setting": "[1]; Fluconazole 20 mg/L added in fermentation medium", "result": "141.3 ± 3.27", "unit": "mg/L"}, {"measurement": "Content of ergothioneine in fermentation broth", "setting": "[1]; Fluconazole 50 mg/L added in fermentation medium", "result": "146.4 mg/L and 146.4 ± 3.41 mg/L"}, {"measurement": "Content of ergothioneine in fermentation broth", "setting": "[1]; Fluconazole 80 mg/L added in fermentation medium", "result": "132.7 ± 3.39", "unit": "mg/L"}, {"measurement": "activation at 50 µg/mL", "setting": "[1]; Pleurotus ostreatus, CGMCC6232, 360 h, Fluconazole 50 mg/L, read-out: content of ergothioneine improved compared with control group", "result": 19.6, "unit": "%"}, {"measurement": "content of extracellular ergothioneine in the filtrate", "setting": "[2]; Fluconazole 50 mg/L (highest)", "result": 7.67, "unit": "mg/L"}]}, {"compound": "tween 60", "values": [{"measurement": "Content of ergothioneine in fermentation broth", "setting": "[1]; tween 60 2 g/L added in fermentation medium", "result": "128.8 ± 1.51", "unit": "mg/L"}, {"measurement": "Content of ergothioneine in fermentation broth", "setting": "[1]; tween 60 5 g/L added in fermentation medium", "result": "173.6 ± 2.98", "unit": "mg/L"}, {"measurement": "content of ergothioneine improved compared with control group", "setting": "[1]; tween 60 10 g/L", "result": 74.9, "unit": "%"}, {"measurement": "Content of ergothioneine in fermentation broth", "setting": "[1]; tween 60 10 g/L added in fermentation medium", "result": "212.7 mg/L and 212.7 ± 4.52 mg/L"}, {"measurement": "Content of ergothioneine in fermentation broth", "setting": "[1]; tween 60 20 g/L added in fermentation medium", "result": "184.4 ± 3.78", "unit": "mg/L"}, {"measurement": "Content of ergothioneine in fermentation broth", "setting": "[1]; tween 60 40 g/L added in fermentation medium", "result": "154.2 ± 2.63", "unit": "mg/L"}, {"measurement": "Content of ergothioneine in fermentation broth", "setting": "[1]; tween 60 50 g/L added in fermentation medium", "result": "129.1 ± 2.1", "unit": "mg/L"}, {"measurement": "content of extracellular ergothioneine in the filtrate", "setting": "[2]; tween 60 5 g/L (highest)", "result": 16.24, "unit": "mg/L"}]}, {"compound": "O=C(O)CCCc1c[nH]c2ccccc12", "note": "[indolebutyric acid]", "values": [{"measurement": "Content of ergothioneine in fermentation broth", "setting": "[1]; indolebutyric acid 0.1 mg/L added in fermentation medium", "result": "130.9 ± 2.23", "unit": "mg/L"}, {"measurement": "Content of ergothioneine in fermentation broth", "setting": "[1]; indolebutyric acid 0.5 mg/L added in fermentation medium", "result": "138.4 ± 1.29", "unit": "mg/L"}, {"measurement": "content of ergothioneine improved compared with control group", "setting": "[1]; indolebutyric acid 1 mg/L", "result": 9.33, "unit": "%"}, {"measurement": "Content of ergothioneine in fermentation broth", "setting": "[1]; indolebutyric acid 1 mg/L added in fermentation medium", "result": "140.6 mg/L and 140.6 ± 3.09 mg/L"}, {"measurement": "Content of ergothioneine in fermentation broth", "setting": "[1]; indolebutyric acid 2 mg/L added in fermentation medium", "result": "137.7 ± 1.84", "unit": "mg/L"}, {"measurement": "Content of ergothioneine in fermentation broth", "setting": "[1]; indolebutyric acid 4 mg/L added in fermentation medium", "result": "132.8 ± 0.93", "unit": "mg/L"}]}, {"compound": "OCC(O)CO", "note": "[glycerol]", "values": [{"measurement": "activation at 75000 µg/mL", "setting": "[1]; Pleurotus ostreatus, CGMCC6232, 360 h, glycerol 75 g/L vs 50 g/L, casein peptone 50 g/L, read-out: content of ergothioneine improved compared with control group", "result": 8.5, "unit": "%"}, {"measurement": "Content of ergothioneine in fermentation broth", "setting": "[1]; glycerol 65 g/L, casein peptone 50 g/L in fermentation medium (control glycerol 50 g/L)", "result": "162.4 ± 2.67", "unit": "mg/L"}, {"measurement": "Content of ergothioneine in fermentation broth", "setting": "[1]; glycerol 75 g/L, casein peptone 50 g/L in fermentation medium (control glycerol 50 g/L)", "result": "170.2 mg/L and 170.2 ± 3.49 mg/L"}, {"measurement": "Content of ergothioneine in fermentation broth", "setting": "[1]; glycerol 85 g/L, casein peptone 50 g/L in fermentation medium (control glycerol 50 g/L)", "result": "164.8 ± 3.41", "unit": "mg/L"}, {"measurement": "Content of ergothioneine in fermentation broth", "setting": "[1]; glycerol 95 g/L, casein peptone 50 g/L in fermentation medium (control glycerol 50 g/L)", "result": "160.1 ± 1.15", "unit": "mg/L"}]}, {"compound": "CC(C)O", "note": "[isopropyl alcohol]", "values": [{"measurement": "content of extracellular ergothioneine in the filtrate", "setting": "[2]; isopropyl alcohol 2% (V/V) (highest)", "result": 10.04, "unit": "mg/L"}]}, {"compound": "Nc1nc2ncc(CNc3ccc(C(=O)N[C@@H](CCC(=O)O)C(=O)O)cc3)nc2c(=O)[nH]1", "note": "[folic acid]", "values": [{"measurement": "activation at 640 µg/mL", "setting": "[1]; Pleurotus ostreatus, CGMCC6232, 360 h, folic acid 0.64 g/L, read-out: content of ergothioneine improved compared with control group", "result": 25, "unit": "%"}, {"measurement": "Content of ergothioneine in fermentation broth", "setting": "[1]; folic acid 0.08 g/L added in fermentation medium", "result": "121.4 ± 1.36", "unit": "mg/L"}, {"measurement": "Content of ergothioneine in fermentation broth", "setting": "[1]; folic acid 0.16 g/L added in fermentation medium", "result": "127.1 ± 2.24", "unit": "mg/L"}, {"measurement": "Content of ergothioneine in fermentation broth", "setting": "[1]; folic acid 0.32 g/L added in fermentation medium", "result": "136.9 ± 4.14", "unit": "mg/L"}, {"measurement": "Content of ergothioneine in fermentation broth", "setting": "[1]; folic acid 0.64 g/L added in fermentation medium", "result": "148.6 mg/L and 148.6 ± 1.54 mg/L"}, {"measurement": "Content of ergothioneine in fermentation broth", "setting": "[1]; folic acid 1.28 g/L added in fermentation medium", "result": "143.8 ± 1.77", "unit": "mg/L"}, {"measurement": "Content of ergothioneine in fermentation broth", "setting": "[1]; folic acid 2.56 g/L added in fermentation medium", "result": "122.2 ± 3.03", "unit": "mg/L"}]}, {"compound": "CCCCCCCC/C=C\\CCCCCCCC(=O)OCCOCC(OCCO)C1OCC(OCCO)C1OCCO", "note": "(centres unmarked) [tween 80]", "values": [{"measurement": "activation at 10000 µg/mL", "setting": "[1]; Pleurotus ostreatus, CGMCC6232, 360 h, tween 80 10 g/L, read-out: content of ergothioneine improved compared with control group", "result": 78.5, "unit": "%"}, {"measurement": "Content of ergothioneine in fermentation broth", "setting": "[1]; tween 80 0.5 g/L added in fermentation medium", "result": "130.2 ± 1.56", "unit": "mg/L"}, {"measurement": "Content of ergothioneine in fermentation broth", "setting": "[1]; tween 80 2 g/L added in fermentation medium", "result": "155.9 ± 2.7", "unit": "mg/L"}, {"measurement": "Content of ergothioneine in fermentation broth", "setting": "[1]; tween 80 5 g/L added in fermentation medium", "result": "181.8 ± 3.95", "unit": "mg/L"}, {"measurement": "Content of ergothioneine in fermentation broth", "setting": "[1]; tween 80 10 g/L added in fermentation medium", "result": "217 mg/L and 217 ± 4.37 mg/L"}, {"measurement": "Content of ergothioneine in fermentation broth", "setting": "[1]; tween 80 20 g/L added in fermentation medium", "result": "170.9 ± 4.43", "unit": "mg/L"}, {"measurement": "Content of ergothioneine in fermentation broth", "setting": "[1]; tween 80 40 g/L added in fermentation medium", "result": "130.9 ± 1.61", "unit": "mg/L"}, {"measurement": "content of extracellular ergothioneine in the filtrate", "setting": "[2]; tween 80 10 g/L (highest)", "result": 18.72, "unit": "mg/L"}]}, {"compound": "N[C@@H](Cc1c[nH]cn1)C(=O)O", "note": "[histidine]", "values": [{"measurement": "activation at 1000 µM", "setting": "[1]; Pleurotus ostreatus, CGMCC6232, 360 h, histidine 1 mmol/L, read-out: content of ergothioneine improved compared with control group", "result": 7.7, "unit": "%"}]}]}
